These results are taken from US12595250B2, “Substituted pyrimidine compounds as multifunctional radical quenchers and their uses” (ARIZONA BOARD OF REGENTS ON BEHALF OF ARIZONA STATE …, priority 2016, dated 2026).

Structures are written as SMILES.

The subject of series [1] is FRDA lymphocytes. In words: Cellular ATP concentration assay (luciferin-luciferase). It counts as cell-based, Human. The note with it: for activity at 1 µM / activity at 5 µM / activity at 20 µM: Homo sapiens, Lymphocyte, incubation 48 h, read-out: Total ATP level (% control) FRDA lymphocytes.
Series [2] can be described thus: In vitro microsomal stability assay. It is filed as in vitro ADME. The following applies: pH 7.4, bovine liver microsomes 1 mg/mL, 25 μM compound, 37° C., NADPH, read-out: Recovery (%) of compound after reaction with activated microsomes. Here is the method:
Liver tissues were diced into small pieces and then washed with isotonic sucrose buffer (0.25 M sucrose, 10 mM Tris-HCl, 0.5 mM EDTA, pH 7.8). The diced tissue was passed through a precooled meat grinder and mixed with three-fold ice cold sucrose buffer supplemented with a mixture of protease inhibitors. The suspension was homogenized in a Waring blender for 25 s at high speed. At this stage, the pH of the suspension was adjusted to 7.4 with 1 M Tris base. The homogenate was centrifuged for 20 min at 1200×g to remove cell debris. The supernatant suspension was homogenized in a tight fitting Teflon-glass Potter-Elvehjem homogenizer and then centrifuged twice at 10,000×g for 20 min, collecting the supernatant each time to remove mitochondria. The floating fat layer was carefully removed by filtering the supernatant through layers of cheesecloth. The supernatant was centrifuged at 150,000×g for 30 min (Beckman-Coulter ultracentrifuge, XL-100K-01, SW 55 Ti rotor). The pellet (microsomal fraction) was suspended in 0.25 M sucrose buffer containing 10 mM Tris-HCl, pH 7.4, with 20% (v/v) glycerol, and centrifuged once more at 150,000×g. The pellet was resuspended in sucrose buffer with 20% (v/v) glycerol. The protein concentration after resuspension was approximately 20 mg/mL, as determined by BCA protein assay (Pierce Chemical) using bovine serum albumin as a standard. Aliquots of microsomal suspensions were stored at −80° C.
In vitro metabolic stability was determined in bovine liver microsomes at a protein concentration of 1 mg/mL in 50 mM phosphate buffer mixture, pH 7.4, containing 5 mM MgCl2 in a final incubation volume of 0.5 mL. Each test compound was added to a final concentration of 25 μM. This mixture was pre-warmed to 37° C. prior to starting the reaction by the addition of β-NADPH to 1 mM final concentration. After incubation for 30 min at 37° C., the reaction was quenched by the addition of 1 mL of propanol, vortexed for 2 min and centrifuged at 15,000×g for 10 min to pellet the precipitated protein. The resulting supernatant was pipetted out and then concentrated under diminished pressure. A parallel incubation of the test compound with deactivated microsomes (quenched immediately with propanol) lacking β-NADPH served as a control and was run for each test agent to detect microsome-independent degradation. The sample was reconstituted in 130 μL MeOH and centrifuged again at 15,000×g for 3 min. The supernatant was removed and 4 μM fluorene was added as an internal standard before HPLC analysis. HPLC analyses were performed on a Zorbax SB-Phenyl reversed phase analytical (150×4.6 mm, 5 m) HPLC column using a mobile phase consisting of MeOH/H2O. A linear gradient of (50:50 MeOH/H2O→100:0 MeOH/H2O) was employed over a period of 14 min at a flow rate of 1 mL/min. Metabolic stability was expressed as percent of control remaining. The experiments were carried out in duplicate to verify the results.
In general terms: Liver microsomes are vesicles of endoplasmic reticulum, rich in cytochrome P450 enzymes.

Series [3] relates to FRDA lymphocytes. In words: Lipid peroxidation assay (C11-BODIPY 581/591, FACS). It counts as cell-based, Human. The note with it: 0.1 μM (low concentration), 5 mM DEM. Here is the method: The bar graph represents the percentage of the median mean fluorescence intensity of C11-BODIPY-green fluorescence relative to a treated control is shown. Data are expressed as the mean±SEM (n=3).
Human mitochondrial disease cell lines, Friedreich's ataxia lymphocytes (GM15850), and Leigh's syndrome lymphocytes (GM13740) were obtained from Coriell Cell Repositories (Camden, NJ). Lymphocytes were cultured in RPMI-1640 medium (Gibco, Life Technologies, Grand Island, NY) with 15% fetal calf serum, 2 mM glutamine (HyClone, South Logan, UT) and 1% penicillin-streptomycin antibiotic supplement (Cellgro, Manassas, VA). Cells were passaged every other day to maintain them in log phase growth and kept at a nominal concentration of 5-10×10^5 cell/mL. A CoQ10 deficient lymphocyte cell line (GM17932) was obtained from Coriell Cell Repositories. […]
Lipid peroxidation was measured by a quantitative FACS assay using the oxidation-sensitive fatty acid probe C11-BODIPY^581/591 (Molecular Probe) as described in art (Goldschmidt, R., et al. Bioorg. Med. Chem. 2013, 21, 969; Khdour, 0. M., et al. ACS Med. Chem. Lett. 2013, 4, 724; and Arce, P. M., et al. Bioorg. Med. Chem. 2012, 20, 5188). […] Cells were resuspended in phosphate buffered saline and were analyzed immediately by FACS (C6 Accuri, BD Biosciences, San Jose, CA), using a 488 nm excitation laser and the FL1-H channel 530±15 nm emission filter. The generation of lipid peroxide was detected as a result of the oxidation of the polyunsaturated butadienyl portion of the dye, resulting in a shift of the fluorescence emission peak from red to green. In each analysis, 10,000 events were recorded after cell debris were electronically gated out. […] Results were expressed as a percentage of the median mean fluorescence intensity of C11-BODIPY-green relative to the treated control (DEM).

`Cc1nc(N2CCC2)nc(OC2CCC2)c1O` [Compound 1a, 2-(Azetidin-1-yl)-4-cyclobutanoxy-6-methylpyrimidin-5-ol]: in the series with FRDA lymphocytes [1], the activity at 1 µM came to 100 ± 1% and the activity at 5 µM came out at 98 ± 1%. Also, in the series with FRDA lymphocytes [1] (20 μM), the activity at 20 µM turned out to be 96 ± 2%.
With `CCCCCCCCCCCCCCc1nc(N2CCC2)nc(OC2CCC2)c1O` [Compound 1b, 2-(Azetidin-1-yl)-4-cyclobutanoxy-6-tetradecylpyrimidin-5-ol], in the series with FRDA lymphocytes [1], the activity at 1 µM is 105 ± 3% and the activity at 5 µM was 102 ± 1%. For the same compound, the activity at 20 µM with FRDA lymphocytes [1] (20 μM) amounted to 94 ± 2%. Further, in series [2], the recovery at 30 min, 25 μM turned out to be 63 ± 8%.
For `CCCCCCCCCCCCCCCCc1nc(N2CCC2)nc(OC2CCC2)c1O` [Compound 1c, 2-(Azetidin-1-yl)-4-cyclobutoxy-6-hexadecylpyrimidin-5-ol], in the series with FRDA lymphocytes [1], the activity at 1 µM worked out at 100 ± 1% and the activity at 5 µM turned out to be 114 ± 3%. Further, the activity at 20 µM in the series on FRDA lymphocytes [1] (20 μM) is 103 ± 2%. Moreover, in series [2], the recovery at 30 min, 25 μM came out at 65 ± 8%.
Take `Cc1nc(OC2CCC2)nc(N2CCC2)c1O` [Compound 2a, 4-(Azetidin-1-yl)-2-cyclobutanoxy-6-methylpyrimidin-5-ol]: in the series with FRDA lymphocytes [1], the activity at 1 µM worked out at 101 ± 1% and the activity at 5 µM came to 99 ± 3%. Besides, the activity at 20 µM in the series on FRDA lymphocytes [1] (20 μM) came out at 96 ± 3%.
Take `CCCCCCCCCCCCCCc1nc(OC2CCC2)nc(N2CCC2)c1O` [Compound 2b, 4-(Azetidin-1-yl)-2-cyclobutanoxy-6-tetradecylpyrimidin-5-ol]: in the series with FRDA lymphocytes [1], the activity at 1 µM worked out at 109 ± 3% and the activity at 5 µM came out at 105 ± 2%. In the series with FRDA lymphocytes [1] (20 μM), the activity at 20 µM stood at 54 ± 6%. In series [2], the recovery at 30 min, 25 μM was found to be 77%. In addition, the “Suppression of lipid peroxidation, comparison of regioisomers (in words, FIG. 2)” value in the series on FRDA lymphocytes [3] is recorded as “significantly more efficient than 1b”.
For `CCCCCCCCCCCCCCCCc1nc(OC2CCC2)nc(N2CCC2)c1O` [Compound 2c, 4-(Azetidin-1-yl)-2-cyclobutanoxy-6-hexadecylpyrimidin-5-ol] the same measures were 102 ± 2%, 110 ± 4%, 99 ± 2%, 63 ± 9% and “better than 1c”.
Take `Cc1nc(OC2CCC2)nc(OC2CCC2)c1O` [Compound 3a, 2,4-Dicyclobutanoxy-6-methylpyrimidin-5-ol]: in the series with FRDA lymphocytes [1], the activity at 1 µM was determined as 101 ± 1% and the activity at 5 µM stood at 99 ± 2%. The activity at 20 µM with FRDA lymphocytes [1] (20 μM) was 97 ± 3%.
Consider `CCCCCCCCCCCCCCCCc1nc(OC2CCC2)nc(OC2CCC2)c1O` [Compound 3c, 2,4-Dicyclobutanoxy-6-hexadecylpyrimidin-5-ol], for which, in the series with FRDA lymphocytes [1], the activity at 1 µM came out at 98 ± 2% and the activity at 5 µM was found to be 102 ± 2%. For the same compound, in the series on FRDA lymphocytes [1] (20 μM), the activity at 20 µM was 96 ± 2%. Also, in series [2], the recovery at 30 min, 25 μM stood at 60 ± 5%.
For `Cc1nc(N2CCC2)nc(N2CCC2)c1O` [Compound 4a, 2,4-Di-(azetidin-1-yl)-6-methylpyrimidin-5-ol], in the series with FRDA lymphocytes [1] (20 μM), the “Inhibition of ATP production (in words)” value is listed as “this effect seems less obvious” and the activity at 20 µM was 85 ± 9%. Further, in the series with FRDA lymphocytes [1], the activity at 1 µM was 101 ± 2% and the activity at 5 µM is 101 ± 2%.
On to `CCCCCCCCCCCCCCc1nc(N2CCC2)nc(N2CCC2)c1O` [Compound 4b, 2,4-Di-(azetidin-1-yl)-6-tetradecylpyrimidin-5-ol], for which, in the series with FRDA lymphocytes [1], the activity at 1 µM was found to be 86 ± 3% and the activity at 5 µM turned out to be 46 ± 7%. Besides, the activity at 20 µM in the series on FRDA lymphocytes [1] (20 μM) is 1%. In addition, the recovery at 30 min, 25 μM in series [2] amounted to 63 ± 5%.
For `CCCCCCCCCCCCCCCCc1nc(N2CCC2)nc(N2CCC2)c1O` [Compound 4c, 2,4-Di-(Azetidin-1-yl)-6-hexadecylpyrimidin-5-ol] the same measures were 92 ± 1%, 61 ± 9%, 1 ± 2% and 62 ± 3%.
